Experimental data reported in patent publication US20120315629A1, “Cloning and Expression of arNOX Protein Transmembrane 9 Superfamily (TM9SF), Methods and Utility” (Nox Technologies ,Inc., priority 2009, published 2012).

Target: T1, Recombinant arNOX (TM9SF4) (Homo sapiens, UniProt Q92544)
T1 construct: cloning of the soluble fragment of TM9SF4 was successful; Met-Ala-Ser leader from NdeI/NheI of pET11b (my inference from the forward primer CATATGGCTAGCATG); made in house; host or cells: E. coli BL21 (DE3), pET11b
T1 sequence (Q92544 24-252): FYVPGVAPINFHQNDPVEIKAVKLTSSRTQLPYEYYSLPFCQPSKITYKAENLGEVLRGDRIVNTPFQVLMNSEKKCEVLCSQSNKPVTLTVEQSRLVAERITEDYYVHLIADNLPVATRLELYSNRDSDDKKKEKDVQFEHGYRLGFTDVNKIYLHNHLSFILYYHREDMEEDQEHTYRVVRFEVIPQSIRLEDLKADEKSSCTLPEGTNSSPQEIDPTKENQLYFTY
Experiment: arNOX activity: superoxide generation measured by reduction of ferricytochrome c
Assay type: biochemical
Conditions: test compounds added after 45 min, reaction continued for an additional 45 min; for inhibition of recombinant arNOX (TM9SF4) activity: extracts made in water unless otherwise indicated
Experimental: Reduction of ferric cytochrome c by superoxide was employed as a standard measure of superoxide formation (Mayo, L. A. and Curnutte, J., 1990, Meth. Enzymol. 186:567-575; Butler, J. et al., 1982, J. Biol. Chem. 257:10747-10750). This method, when coupled to superoxide dismutase inhibition, is generally accepted for the measurement of superoxide generation. The assay consists of 150 μl buffy coat material in PBSG buffer (8.06 g NaCl, 0.2 g KCl, 0.18 g Na2HPO4, 0.13 g CaCl2, 0.1 g MgCl2, 1.35 g glucose dissolved in 1000 ml deionized water, adjusted to pH 7.4, filtered and stored at 4° C.). Reduction of ferricytochrome c by superoxide was monitored as the increase in absorbance at 550 nm, with reference at 540 nm (Butler et al., 1982). As a further control for the specificity of the arNOX activity, 60 units of superoxide dismutase (SOD) were added near the end of the assay to ascertain that the rate returned to base line. Rates were determined using a SLM Aminco DW-2000 spectrophotometer in the dual wavelength mode of operation.
Rates were determined using an SLM Aminco DW-2000 spectrophotometer (Milton Roy, Rochester, N.Y.) in the dual wave length mode of operation with continuous measurements over 1 min every 1.5 min. After 45 min, test compounds were added and the reaction was continued for an additional 45 min. After 45 min, a millimolar extinction coefficient of 19.1 cm^−1 was used for reduced ferricytochrome c. The results of the test compounds are provided below (Table 4) for experiments carried out with TM9SF4, but from the results of FIG. 7, it is concluded that all the arNOX isoforms have similar responses to the various compounds given below. Extracts were made of the compounds in water unless otherwise indicated.

O=C(O)c1cc(O)c(O)c(O)c1 [gallic acid]
inhibition of recombinant arNOX (TM9SF4) activity: 80%

CCC(C)C(=O)OC1C(=O)OC2CC3C(C)=CC(=O)C(O)C3(C)C3C(O)C(O)C4(C)OCC23C14 (stereo not drawn) [similikalactone D]
sensitivity of recombinant arNOX (TM9SF4) activity to the compound (in words): resistant

superoxide dismutase
inhibition of recombinant arNOX (TM9SF4) activity: 78%
